One test concerns monoclonal antibody 2A11. As to the kind of experiment: Indirect radioimmunoassay: 2A11 cross reactivity with solid phase synthetic peptides. It is filed as binding, mouse. The settings on record: for % 125I-PROTEIN A BOUND (% cross reactivity with 2A11): cpm minus BSA background relative to bombesin; for % 125I-PROTEIN A BOUND (% cross reactivity with 2A11) / CPM 125I-PROTEIN A BOUND: peptides solid phased at 500 ng/well; for CPM 125I-PROTEIN A BOUND: 2A11 10 μg/ml, detection with rabbit anti mouse IgG and 125I-protein A; for 2A11 binding to the solid phase peptide (in words): indirect RIA / titration of 2A11. How it is done:
Peptides (all purchased from Peninsula Laboratories) were adsorbed to 96 well polyvinyl chloride microtiter plates (Dynatech) by adding 0.05 ml of a 10 μg/ml peptide in phosphate buffered saline (PBS) for 1 hr., washing in PBS, then blocking with a 1% bovine serum albumin (BSA) PBS solution. Purified 2A11 from ascites fluid (10 μg/ml) was added, incubated, washed three times, then protein A affinity purified rabbit anti-mouse IgG (Cappel Laboratories) 1.6 μg/ml) was added, incubated, washed three times, then ^125 I-protein A (Pharmacia, labeled by chloramine T method to 40-50 μCi/μg) 40,000 cpm/well was added, incubated, washed 8× and then the wells cut out and counted in a Beckman gamma counter. All incubations were for 1 hr. at room temperature in PBS with 1% BSA in 0.025 ml volumes.
Percent cross reactivity was determined as follows:
% cross reactivity--cpm^125 I-protein A bound on peptide target minus cpm bound on BSA target divided by crop bound by bombesin minus BSA background times 100. Typically, the bombesin target caused 2A11 binding sufficient to bind about 32,776 cpm of ^125 I-protein A while the BSA background bound about 30 cpm.

The test system of another test is solid phase 2A11. As to the kind of experiment: Quantitative inhibition assay: peptide inhibition of 125I-Tyr4-BN binding to solid phase 2A11. The settings on record: for PERCENT INHIBITION of 125I-Tyr4-BN binding to solid phase 2A11: peptides at 1 nM, mean ± SD of 3 determinations. The arrangement: species or system mouse. The protocol:
Antibodies 2A11 or MOPC 21 were adsorbed to 96 well polyvinylchloride plates at 500 ng/well followed by saturation with 1% BSA-PBS. Unlabeled bombesin was added to triplicate wells covering a range from 1-1,000 pg and incubated for 1 hr. at room temperature. Without removing the unlabeled bombesin samples, about 12,000 cpm of ^125 I-Tyr^4 -bombesin was added to each well and incubated overnight at 4° C., washed 8× and counted. All additions were in 1% BSA-PBS in a 25 μl volume, and the washes were with 1% BSA-PBS 0.2 ml/well.

In test [1] the test system is 2A11 staining of BLP in paraffin embedded tissue. As to the kind of experiment: Immunohistochemical staining with 2A11: pre-absorption specificity test. The settings on record: peptide 100 μg/ml; 2A11 at 10 μg/ml. The text has this:
Antibody 2A11 was also used for immunohistochemical localization of BLP in paraffin embedded tissue. Using rabbit antisera it has been reported that chick proventriculus and human fetal bronchioles are rich in BN-like immunoreactivity. Use was, therefore, made of immunohistochemical staining technique of Hsu, et al. J. Histochem. Cytochem. 29, 557-5--1981, in combination with 2A11 for the light microscopic detection of BLP. Bombesinergic cells were found in chick proventriculus, human fetal bronchioles and a human SCLC. Immune staining was performed using 2A11 at 10 μg/ml.

The next test relates to NCI-N592. As to the kind of experiment: Agarose clonogenic assay in serum-free HITES medium, NCI-N592. Type of test: cell-based, human. The conditions noted are these: 50 nM exogenous BN; SCLC lines NCI-N417D and NCI-N592. How it is done: Because of its poor colony forming efficiency in serum-free medium, NCI-N417 culture plates were supplemented with 0.1% BSA to enhance cell growth, NCI-N592 cells were seeded at 5×10^4 per plate while NCI-N417 cells were plated at 1×10^4. Plates were pre-screened to verify single cell distribution of test cells and assessed 21 days later for colony formation. Cell aggregates of greater than 50 cells were scored positive as definitive colony growth.

Here are results for twelve compounds from patent US5460801A, “Inhibition of small cell lung cancer cell growth in vivo using monoclonal antibody” (The United States of America as represented by the …, priority 1993, dated 1995).

Several values for one entry are separate records, joined by “and”; a condition that tells them apart may be missing. Equal values may be shown once. Square brackets hold non-standard residues; d marks the D form. Ends that are not written are not given here. Peptide text beside a SMILES is read from it. pGlu = O=C1CC[C@@H](C(=O)O)N1

In the case of `CC[C@H](C)[C@H](NC(=O)[C@H](Cc1ccccc1)NC(=O)[C@H](C)NC(=O)[C@H](CC(=O)O)NC(=O)[C@H](CCCCN)NC(=O)[C@H](CO)NC(=O)[C@@H]1CCCN1C(=O)[C@@H]1CCC(=O)N1)C(=O)NCC(=O)N[C@@H](CC(C)C)C(=O)N[C@@H](CCSC)C(N)=O` [ELEDOISIN, eledoisin] ([pGlu]PSKDAFIGLM-NH2), in the test on monoclonal antibody 2A11, the “% 125I-PROTEIN A BOUND (% cross reactivity with 2A11)” value (“% 125I-PROTEIN A BOUND” for short) is recorded as less than 0.02% and the “CPM 125I-PROTEIN A BOUND” value is 24 CPM. Besides, in the test with monoclonal antibody 2A11 (listed as eledoisin), the “% 125I-PROTEIN A BOUND” value is given as “less than 0.3%”.

`CSCC[C@H](NC(=O)[C@H](Cc1ccccc1)NC(=O)[C@H](Cc1c[nH]cn1)NC(=O)CNC(=O)[C@@H](NC(=O)[C@H](C)NC(=O)[C@H](Cc1c[nH]c2ccccc12)NC(=O)[C@H](CCC(N)=O)NC(=O)[C@@H]1CCC(=O)N1)C(C)C)C(N)=O` [Litorin]: the “PERCENT INHIBITION of 125I-Tyr4-BN binding to solid phase 2A11” value (“PERCENT INHIBITION” for short) in the test on solid phase 2A11 is on record as 56.5 ± 6.2%.

As for `CSCC[C@H](NC(=O)[C@H](Cc1ccccc1)NC(=O)[C@H](Cc1c[nH]cn1)NC(=O)CNC(=O)[C@@H](NC(=O)[C@H](C)NC(=O)[C@H](Cc1c[nH]c2ccccc12)NC(=O)[C@H](CCC(N)=O)NC(=O)[C@@H]1CCCN1C(=O)[C@@H](NC(=O)[C@@H]1CCC(=O)N1)C(C)C)C(C)C)C(N)=O` [Ranatensin] ([pGlu]VPQWAVGHFM-NH2), the “PERCENT INHIBITION” value in the test on solid phase 2A11 is 54.0 ± 8.4%.

For the compound `CSCC[C@H](NC(=O)[C@H](CC(C)C)NC(=O)CNC(=O)[C@H](Cc1ccccc1)NC(=O)[C@H](Cc1ccccc1)NC(=O)[C@H](CCC(N)=O)NC(=O)[C@H](CCC(N)=O)NC(=O)[C@@H]1CCCN1C(=O)[C@H](CCCCN)NC(=O)[C@@H]1CCCN1C(=O)[C@@H](N)CCCNC(=N)N)C(N)=O` [SUBSTANCE P, substance P], in the test with monoclonal antibody 2A11, the “% 125I-PROTEIN A BOUND” value is on record as less than 0.02%, the “2A11 binding to the solid phase peptide (in words)” value is on record as “insignificant 2A11 binding” and the “CPM 125I-PROTEIN A BOUND” value was found to be 31 CPM. The “% 125I-PROTEIN A BOUND” value in the test with monoclonal antibody 2A11 (listed as substance P) was “less than 0.3%”. In addition, the “inhibition of 125I-Tyr4-BN/2A11 binding (in words)” value in the test with solid phase 2A11 (same concentration range as BN standard curve) is “incapable of inhibiting”.

As to Alytesin, the “PERCENT INHIBITION” value with solid phase 2A11 was 99.0 ± 5.1%.

In the case of “GRP^14-27: fragment 14-27 of gastrin releasing peptide (MYPRGNHWAVGHLM; ends and bridges not checked; UniProt P07492 37-50, looked up, fragment)”, in the test on monoclonal antibody 2A11, the “% 125I-PROTEIN A BOUND” value was found to be 102% and the “CPM 125I-PROTEIN A BOUND” value is 33,379 CPM. The “PERCENT INHIBITION” value in the test on solid phase 2A11 is on record as 104.3 ± 7.7%.

With “GRP^20-27: C-terminal octapeptide fragment 20-27 of gastrin releasing peptide”, the “PERCENT INHIBITION” value in the test with solid phase 2A11 (0.001 µM) was 98.5 ± 2.4% and 98.5%.

With KASSININ, in the test on monoclonal antibody 2A11, the “% 125I-PROTEIN A BOUND” value is given as less than 0.02% and the “CPM 125I-PROTEIN A BOUND” value is listed as 37 CPM. For the same compound, the “% 125I-PROTEIN A BOUND” value in the test with monoclonal antibody 2A11 (listed as kassinin) is “less than 0.3%”.

In the case of PHYSALAEMIN, in the test with monoclonal antibody 2A11, the “% 125I-PROTEIN A BOUND” value was less than 0.02% and the “CPM 125I-PROTEIN A BOUND” value is on record as 28 CPM. Besides, the “% 125I-PROTEIN A BOUND” value in the test on monoclonal antibody 2A11 (listed as physalaemin) was “less than 0.3%”.

Turning to bombesin, the “% 125I-PROTEIN A BOUND” value with monoclonal antibody 2A11 amounted to 100%. Besides, the “2A11 binding to the solid phase peptide (in words)” value with monoclonal antibody 2A11 was “maximal binding”. Moreover, the “CPM 125I-PROTEIN A BOUND” value is reported as 32,776 CPM in the test with monoclonal antibody 2A11 (listed as BOMBESIN) and “about 32,776 CPM” with monoclonal antibody 2A11 (listed as bombesin). Moreover, the “effect of pre-absorption of the antibody solution on 2A11 staining (in words)” value in test [1] is “staining inhibited”. The “effect of exogenous BN on 2A11 growth inhibition (in words)” value in the test with NCI-N592 is given as “nullification of the 2A11 effect”. Further, in the test with solid phase 2A11, the “PERCENT INHIBITION” value is 100.0 ± 4.7%.

With “gastrin-releasing peptide [GASTRIN RELEASING PEPTIDE (GRP)]”, in the test on monoclonal antibody 2A11, the “% 125I-PROTEIN A BOUND” value is reported as 102%, the “2A11 binding to the solid phase peptide (in words)” value is reported as “maximal binding” and the “CPM 125I-PROTEIN A BOUND” value is listed as 33,405 CPM. For the same compound, the “PERCENT INHIBITION” value with solid phase 2A11 worked out at 101.0 ± 3.4%.

Take neurotensin: the “effect of pre-absorption of the antibody solution on 2A11 staining (in words)” value in test [1] is “no inhibition of staining”.
